Measurements published in PubChem BioAssay (NCI).
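Protocol summary: plate cells (96-well), add compound at 5 concentrations, incubate 48 h, interpolate endpoints linearly. GI50: concentration for 50% inhibition of growth. Definition used: TGI = concentration required for complete inhibition of growth.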

Key:
Assay in all cases: inhibition of tumour cell growth, NCI panel, 48 h
[1] = system: 786-0 renal
[2] = system: A498 renal
[3] = system: A549 NSCLC
[4] = system: ACHN renal
[5] = system: BT-549 breast
[6] = system: CAKI-1 renal
[7] = system: CCRF-CEM leukemia
[8] = system: COLO 205 colon
[9] = system: DU-145 prostate
[10] = system: EKVX NSCLC
[11] = system: HCC-2998 colon
[12] = system: HCT-116 colon
[13] = system: HCT-15 colon
[14] = system: HL-60(TB) leukemia
[15] = system: HOP-62 NSCLC
[16] = system: HOP-92 NSCLC
[17] = system: HS 578T breast
[18] = system: HT29 colon
[19] = system: IGROV1 ovarian
[20] = system: K-562 leukemia
[21] = system: KM12 colon
[22] = system: LOX IMVI melanoma
[23] = system: M14 melanoma
[24] = system: MALME-3M melanoma
[25] = system: MCF7 breast
[26] = system: MDA-MB-231 breast
[27] = system: MDA-MB-435
[28] = system: MDA-MB-468 breast
[29] = system: MOLT-4 leukemia
[30] = system: NCI-H226 lung
[31] = system: NCI-H23 lung
[32] = system: NCI-H460 lung
[33] = system: NCI-H522 lung
[34] = system: NCI/ADR-RES ovarian
[35] = system: OVCAR-3 ovarian
[36] = system: OVCAR-4 ovarian
[37] = system: OVCAR-5 ovarian
[38] = system: OVCAR-8 ovarian
[39] = system: PC-3 prostate
[40] = system: RPMI-8226 leukemia
[41] = system: RXF 393 renal
[42] = system: SF-268 CNS
[43] = system: SF-295 CNS
[44] = system: SF-539 CNS
[45] = system: SK-MEL-2 melanoma
[46] = system: SK-MEL-28 melanoma
[47] = system: SK-MEL-5 melanoma
[48] = system: SK-OV-3 ovarian
[49] = system: SN12C renal
[50] = system: SNB-19 CNS
[51] = system: SNB-75 CNS
[52] = system: SR leukemia
[53] = system: SW-620 colon
[54] = system: T-47D breast
[55] = system: TK-10 renal
[56] = system: U251 CNS
[57] = system: UACC-257 melanoma
[58] = system: UACC-62 melanoma
[59] = system: UO-31 renal

CC(Nc1ncnc2ccc(-c3ccc4oc(N)nc4c3)cc12)c1ccccc1 (stereo not drawn)
GI50 [1]: 2.19 µM | TGI [1]: 8.59 µM | GI50 [2]: 2.3 µM | TGI [2]: 17.3 µM | GI50 [3]: 2.75 µM | TGI [3]: 18.2 µM | GI50 [4]: 1.84 µM | TGI [4]: 4.92 µM | GI50 [5]: 2.62 µM | TGI [5]: 11.3 µM | GI50 [6]: 3.52 µM | TGI [6]: 17.1 µM | GI50 [7]: 2.34 µM | TGI [7]: 10.2 µM | GI50 [8]: 5.3 µM | TGI [8]: > 100 µM | GI50 [9]: 2.91 µM | TGI [9]: 15.6 µM | GI50 [10]: 2.73 µM | TGI [10]: 18.5 µM | GI50 [11]: 3.59 µM | TGI [11]: 15.8 µM | GI50 [12]: 2.06 µM | TGI [12]: 4.78 µM | GI50 [13]: 2.85 µM | TGI [13]: 11.7 µM | GI50 [14]: 1.87 µM | TGI [14]: 5 µM | GI50 [15]: 1.63 µM | TGI [15]: 4.68 µM | GI50 [16]: 2.02 µM | TGI [16]: 5.62 µM | GI50 [17]: 2.04 µM | TGI [17]: 5.86 µM | GI50 [18]: 4.94 µM | TGI [18]: > 100 µM | GI50 [19]: 1.45 µM | TGI [19]: 3.75 µM | GI50 [20]: 3.89 µM | TGI [20]: 15.5 µM | GI50 [21]: 4.27 µM | TGI [21]: 29 µM | GI50 [22]: 1.62 µM | TGI [22]: 3 µM | GI50 [23]: 4.97 µM | TGI [23]: 42.4 µM | GI50 [24]: 1.7 µM | TGI [24]: 3.44 µM | GI50 [25]: 1.59 µM | TGI [25]: 3.57 µM | GI50 [26]: 2.59 µM | TGI [26]: 6.92 µM | GI50 [27]: 3.84 µM | TGI [27]: 19.5 µM | GI50 [28]: 1.07 µM | TGI [28]: 2.8 µM | GI50 [29]: 2.67 µM | TGI [29]: 10.4 µM | GI50 [30]: 1.87 µM | TGI [30]: 6.21 µM | GI50 [31]: 3.53 µM | TGI [31]: 14.5 µM | GI50 [32]: 2.34 µM | TGI [32]: 5.91 µM | GI50 [33]: 2.83 µM | TGI [33]: 13.4 µM | GI50 [34]: 3.1 µM | TGI [34]: 11.5 µM | GI50 [35]: 1.67 µM | TGI [35]: 3.35 µM | GI50 [36]: 2.14 µM | TGI [36]: 5.16 µM | GI50 [37]: 3.49 µM | TGI [37]: 18.7 µM | GI50 [38]: 2.96 µM | TGI [38]: 12.6 µM | GI50 [39]: 4.52 µM | TGI [39]: 17.1 µM | GI50 [40]: 2.47 µM | TGI [40]: 13.3 µM | GI50 [41]: 1.98 µM | TGI [41]: 5.87 µM | GI50 [42]: 3.91 µM | TGI [42]: 54.7 µM | GI50 [43]: 2.82 µM | TGI [43]: 12.9 µM | GI50 [44]: 1.91 µM | TGI [44]: 4.78 µM | GI50 [45]: 19.5 µM | TGI [45]: 41.7 µM | GI50 [46]: 3.54 µM | TGI [46]: 15.1 µM | GI50 [47]: 2.15 µM | TGI [47]: 5.88 µM | GI50 [48]: 2.65 µM | TGI [48]: 8.56 µM | GI50 [49]: 2.4 µM | TGI [49]: 7.26 µM | GI50 [50]: 3.13 µM | TGI [50]: 14.6 µM | GI50 [51]: 1.45 µM | TGI [51]: 3.61 µM | GI50 [52]: 2.9 µM | TGI [52]: 10.3 µM | GI50 [53]: 4.42 µM | TGI [53]: 18.9 µM | GI50 [54]: 4.06 µM | TGI [54]: 26 µM | GI50 [55]: 1.57 µM | TGI [55]: 5.51 µM | GI50 [56]: 2.8 µM | TGI [56]: 11.6 µM | GI50 [57]: 5.23 µM | TGI [57]: 39.5 µM | GI50 [58]: 3.26 µM | TGI [58]: 11.8 µM | GI50 [59]: 1.37 µM | TGI [59]: 4.16 µM
